Measurements from article PMC7206119, “RIP1 inhibition blocks inflammatory diseases but not tumor growth or metastases” (Cell Death and Differentiation, 2019).

Key:
Test in all cases: biochemical
Design in all cases: DiscoverX kinase panel, active-site competition binding (KINOMEscan type), percent of control at one concentration
Conditions in all cases: competition binding, percent of control
CDKL2 = CDKL2 (Homo sapiens, UniProt Q92772)
CSNK1G2 = CSNK1G2 (Homo sapiens, UniProt P78368)
DRAK2 = target: T1, DRAK2 (Homo sapiens, UniProt O94768)
T1 construct: gene STK17B

ERK2 = target: T2, ERK2 (Homo sapiens, UniProt P28482)
T2 construct: gene MAPK1

ERK8 = target: T3, ERK8 (Homo sapiens, UniProt Q8TD08)
T3 construct: gene MAPK15

FLT3(D835V) = FLT3(D835V) (Homo sapiens, UniProt P36888, D835V)
FLT3(ITD,D835V) = FLT3(ITD,D835V) (Homo sapiens, UniProt P36888, D835V/ITD)
GAK = GAK (Homo sapiens, UniProt O14976)
GRK2 = GRK2 (Homo sapiens, UniProt P25098)
IKK-beta = target: T4, IKK-beta (Homo sapiens, UniProt O14920)
T4 construct: gene IKBKB

JNK2 = target: T5, JNK2 (Homo sapiens, UniProt P45984)
T5 construct: gene MAPK9

KIT(D816H) = KIT(D816H) (Homo sapiens, UniProt P10721, D816H)
MEK2 = target: T6, MEK2 (Homo sapiens, UniProt P36507)
T6 construct: gene MAP2K2

MYLK4 = MYLK4 (Homo sapiens, UniProt Q86YV6)
NEK3 = NEK3 (Homo sapiens, UniProt P51956)
PHKG1 = PHKG1 (Homo sapiens, UniProt Q16816)
PYK2 = target: T7, PYK2 (Homo sapiens, UniProt Q14289)
T7 construct: gene PTK2B

QSK = target: T8, QSK (Homo sapiens, UniProt Q9Y2K2)
T8 construct: gene SIK3

[1] = target: T9, RPS6KA4(Kin.Dom.2-C-terminal) (Homo sapiens, UniProt O75676)
T9 construct: Kin.Dom.2-C-terminal

TIE2 = target: T10, TIE2 (Homo sapiens, UniProt Q02763)
T10 construct: gene TEK

YANK1 = target: T11, YANK1 (Homo sapiens, UniProt Q8WU08)
T11 construct: gene STK32A
T11 sequence (Q8WU08 whole entry): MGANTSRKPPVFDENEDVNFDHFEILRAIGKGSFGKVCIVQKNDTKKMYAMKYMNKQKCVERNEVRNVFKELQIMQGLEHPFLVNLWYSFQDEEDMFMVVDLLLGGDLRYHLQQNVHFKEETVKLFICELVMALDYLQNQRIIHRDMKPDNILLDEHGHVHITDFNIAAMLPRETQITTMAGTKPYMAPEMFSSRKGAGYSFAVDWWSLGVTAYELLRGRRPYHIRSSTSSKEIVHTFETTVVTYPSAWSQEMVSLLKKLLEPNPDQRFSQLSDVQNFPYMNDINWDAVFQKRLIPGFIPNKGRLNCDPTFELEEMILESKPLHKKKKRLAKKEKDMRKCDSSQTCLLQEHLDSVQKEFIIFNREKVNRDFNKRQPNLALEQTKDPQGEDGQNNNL

Chain of CDKL2 (Q92772 whole entry): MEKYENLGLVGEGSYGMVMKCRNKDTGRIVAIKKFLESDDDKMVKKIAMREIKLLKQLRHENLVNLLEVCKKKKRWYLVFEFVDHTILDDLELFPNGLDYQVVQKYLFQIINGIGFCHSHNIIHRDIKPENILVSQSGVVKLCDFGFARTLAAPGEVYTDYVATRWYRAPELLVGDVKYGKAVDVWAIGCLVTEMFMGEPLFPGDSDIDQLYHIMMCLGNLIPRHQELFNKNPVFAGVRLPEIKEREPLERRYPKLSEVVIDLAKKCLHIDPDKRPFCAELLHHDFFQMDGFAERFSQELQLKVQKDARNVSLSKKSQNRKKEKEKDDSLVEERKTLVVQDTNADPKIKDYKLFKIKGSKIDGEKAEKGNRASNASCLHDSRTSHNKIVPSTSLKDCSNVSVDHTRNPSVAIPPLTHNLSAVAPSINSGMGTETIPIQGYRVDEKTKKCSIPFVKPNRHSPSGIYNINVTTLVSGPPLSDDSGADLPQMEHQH
T4 sequence (O14920 whole entry): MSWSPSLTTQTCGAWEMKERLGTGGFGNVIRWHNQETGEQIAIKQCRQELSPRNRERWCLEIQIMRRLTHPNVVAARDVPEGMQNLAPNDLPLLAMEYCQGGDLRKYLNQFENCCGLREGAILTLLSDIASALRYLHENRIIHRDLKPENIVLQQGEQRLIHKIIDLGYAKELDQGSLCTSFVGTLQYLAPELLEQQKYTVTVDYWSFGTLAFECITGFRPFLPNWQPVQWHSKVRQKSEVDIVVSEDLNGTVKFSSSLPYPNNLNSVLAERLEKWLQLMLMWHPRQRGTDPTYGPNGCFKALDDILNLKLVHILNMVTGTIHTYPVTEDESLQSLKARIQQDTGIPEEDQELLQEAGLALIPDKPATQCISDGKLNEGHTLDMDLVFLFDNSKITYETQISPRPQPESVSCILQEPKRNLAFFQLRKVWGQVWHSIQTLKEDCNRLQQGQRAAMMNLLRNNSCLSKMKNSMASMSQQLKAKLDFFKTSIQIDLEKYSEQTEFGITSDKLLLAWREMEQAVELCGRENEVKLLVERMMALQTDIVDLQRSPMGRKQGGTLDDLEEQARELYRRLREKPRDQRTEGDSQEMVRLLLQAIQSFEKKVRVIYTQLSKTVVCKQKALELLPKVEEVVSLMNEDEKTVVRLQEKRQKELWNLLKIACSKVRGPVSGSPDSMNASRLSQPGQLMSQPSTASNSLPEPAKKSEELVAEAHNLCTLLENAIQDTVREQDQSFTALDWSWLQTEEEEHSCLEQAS
T9 sequence (O75676 whole entry): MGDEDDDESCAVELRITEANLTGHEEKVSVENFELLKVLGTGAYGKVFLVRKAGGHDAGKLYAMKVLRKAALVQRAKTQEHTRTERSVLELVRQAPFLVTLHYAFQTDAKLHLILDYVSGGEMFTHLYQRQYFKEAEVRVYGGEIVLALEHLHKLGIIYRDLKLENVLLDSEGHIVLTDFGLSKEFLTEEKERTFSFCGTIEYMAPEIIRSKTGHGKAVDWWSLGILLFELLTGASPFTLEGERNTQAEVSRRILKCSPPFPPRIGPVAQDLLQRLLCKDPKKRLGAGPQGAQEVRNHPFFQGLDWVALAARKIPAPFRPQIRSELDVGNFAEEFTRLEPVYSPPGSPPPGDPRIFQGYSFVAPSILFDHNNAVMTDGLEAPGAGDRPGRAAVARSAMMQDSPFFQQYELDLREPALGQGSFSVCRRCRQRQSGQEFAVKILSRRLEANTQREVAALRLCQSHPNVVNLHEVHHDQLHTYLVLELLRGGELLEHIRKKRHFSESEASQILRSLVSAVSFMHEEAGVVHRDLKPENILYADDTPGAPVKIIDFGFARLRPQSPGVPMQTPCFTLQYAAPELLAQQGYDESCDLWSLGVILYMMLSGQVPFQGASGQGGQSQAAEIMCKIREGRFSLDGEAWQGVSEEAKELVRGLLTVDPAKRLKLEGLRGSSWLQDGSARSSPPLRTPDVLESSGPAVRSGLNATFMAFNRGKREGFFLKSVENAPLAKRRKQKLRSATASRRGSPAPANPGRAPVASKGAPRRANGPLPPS
Chain of GAK (O14976 whole entry): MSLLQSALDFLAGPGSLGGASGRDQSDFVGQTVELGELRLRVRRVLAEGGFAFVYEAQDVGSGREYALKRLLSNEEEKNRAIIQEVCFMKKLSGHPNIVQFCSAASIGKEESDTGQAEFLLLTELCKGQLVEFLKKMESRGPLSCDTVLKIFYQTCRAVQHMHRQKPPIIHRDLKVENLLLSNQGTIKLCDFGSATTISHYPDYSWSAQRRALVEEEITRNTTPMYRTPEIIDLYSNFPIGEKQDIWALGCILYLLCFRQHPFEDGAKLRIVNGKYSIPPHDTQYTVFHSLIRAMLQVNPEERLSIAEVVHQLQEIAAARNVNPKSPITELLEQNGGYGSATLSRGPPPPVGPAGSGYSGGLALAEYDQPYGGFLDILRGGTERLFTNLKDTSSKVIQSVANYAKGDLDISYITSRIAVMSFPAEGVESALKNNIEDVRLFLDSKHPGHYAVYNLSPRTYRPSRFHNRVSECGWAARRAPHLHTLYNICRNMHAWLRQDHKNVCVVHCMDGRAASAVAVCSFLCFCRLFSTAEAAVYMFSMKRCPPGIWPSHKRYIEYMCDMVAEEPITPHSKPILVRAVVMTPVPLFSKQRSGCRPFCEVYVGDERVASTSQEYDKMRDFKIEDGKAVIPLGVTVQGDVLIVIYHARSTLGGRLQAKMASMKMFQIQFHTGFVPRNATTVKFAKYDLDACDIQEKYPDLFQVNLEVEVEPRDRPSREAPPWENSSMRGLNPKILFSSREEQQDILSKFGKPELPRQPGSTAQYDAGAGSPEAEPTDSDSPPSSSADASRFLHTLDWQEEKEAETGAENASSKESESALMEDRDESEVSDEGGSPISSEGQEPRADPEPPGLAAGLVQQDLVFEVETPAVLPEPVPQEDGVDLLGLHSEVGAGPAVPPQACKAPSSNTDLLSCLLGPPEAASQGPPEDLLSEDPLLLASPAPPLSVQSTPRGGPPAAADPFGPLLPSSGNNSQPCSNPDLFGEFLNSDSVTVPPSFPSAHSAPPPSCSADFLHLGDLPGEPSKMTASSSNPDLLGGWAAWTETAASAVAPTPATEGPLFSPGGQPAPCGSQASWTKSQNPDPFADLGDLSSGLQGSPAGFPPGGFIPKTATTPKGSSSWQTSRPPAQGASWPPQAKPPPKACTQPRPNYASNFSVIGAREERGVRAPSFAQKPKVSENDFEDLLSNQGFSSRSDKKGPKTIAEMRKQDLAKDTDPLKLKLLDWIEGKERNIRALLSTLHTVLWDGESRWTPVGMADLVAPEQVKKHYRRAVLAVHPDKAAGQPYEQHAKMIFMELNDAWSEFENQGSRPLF
Chain of GRK2 (P25098 whole entry): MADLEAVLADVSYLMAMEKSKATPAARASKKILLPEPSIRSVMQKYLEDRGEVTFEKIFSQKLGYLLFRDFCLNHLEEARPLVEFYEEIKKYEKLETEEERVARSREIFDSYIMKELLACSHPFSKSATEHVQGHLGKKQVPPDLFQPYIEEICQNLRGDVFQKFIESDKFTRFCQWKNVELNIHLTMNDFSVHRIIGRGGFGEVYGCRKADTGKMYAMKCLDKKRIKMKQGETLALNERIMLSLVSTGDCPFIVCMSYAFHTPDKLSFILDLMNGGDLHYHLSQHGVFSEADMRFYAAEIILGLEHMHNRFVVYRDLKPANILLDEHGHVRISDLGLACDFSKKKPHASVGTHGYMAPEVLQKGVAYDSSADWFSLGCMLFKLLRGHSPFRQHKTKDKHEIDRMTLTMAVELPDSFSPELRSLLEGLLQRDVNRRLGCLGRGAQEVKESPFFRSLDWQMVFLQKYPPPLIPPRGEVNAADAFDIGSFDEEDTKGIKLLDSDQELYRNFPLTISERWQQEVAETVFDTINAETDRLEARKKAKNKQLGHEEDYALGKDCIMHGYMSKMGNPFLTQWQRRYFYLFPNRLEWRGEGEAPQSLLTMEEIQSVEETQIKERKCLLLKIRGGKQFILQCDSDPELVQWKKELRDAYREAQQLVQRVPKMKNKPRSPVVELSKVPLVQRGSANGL
Chain of CSNK1G2 (P78368 whole entry): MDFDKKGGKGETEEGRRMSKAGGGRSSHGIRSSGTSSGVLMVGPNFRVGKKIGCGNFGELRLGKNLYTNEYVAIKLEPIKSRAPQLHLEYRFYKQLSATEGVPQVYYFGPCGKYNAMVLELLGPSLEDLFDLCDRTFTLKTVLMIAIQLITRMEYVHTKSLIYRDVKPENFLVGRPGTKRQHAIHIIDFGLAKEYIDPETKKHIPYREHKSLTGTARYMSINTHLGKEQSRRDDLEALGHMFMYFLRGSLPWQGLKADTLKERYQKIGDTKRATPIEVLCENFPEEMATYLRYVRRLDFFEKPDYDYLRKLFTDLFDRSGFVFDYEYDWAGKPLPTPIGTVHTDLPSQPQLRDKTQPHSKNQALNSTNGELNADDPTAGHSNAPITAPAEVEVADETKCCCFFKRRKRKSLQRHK

Structure (SMILES): COc1cc2c(cn1)N(C)C(=O)[C@@H](NC(=O)c1nc3n(n1)[C@H](c1ccccc1)CC3)CC2 [GNE684, (S)-N-((S)-7-methoxy-1-methyl-2-oxo-2,3,4,5-tetrahydro-1H-pyrido[3,4-b]azepin-3-yl)-5-phenyl-6,7-dihydro-5H-pyrrolo[1,2-b][1,2,4]triazole-2-carboxamide]
- remaining binding at 10 µM (CDKL2): 95%
- remaining binding at 10 µM (CSNK1G2): 90%
- remaining binding at 10 µM (DRAK2): 100%
- remaining binding at 10 µM (ERK2): 100%
- remaining binding at 10 µM (ERK8): 85%
- remaining binding at 10 µM (FLT3(D835V)): 88%
- remaining binding at 10 µM (FLT3(ITD,D835V)): 84%
- remaining binding at 10 µM (GAK): 92%
- remaining binding at 10 µM (GRK2): 94%
- remaining binding at 10 µM (IKK-beta): 100%
- remaining binding at 10 µM (JNK2): 98%
- remaining binding at 10 µM (KIT(D816H)): 100%
- remaining binding at 10 µM (MEK2): 80%
- remaining binding at 10 µM (MYLK4): 100%
- remaining binding at 10 µM (NEK3): 94%
- remaining binding at 10 µM (PHKG1): 77%
- remaining binding at 10 µM (PYK2): 92%
- remaining binding at 10 µM (QSK): 97%
- remaining binding at 10 µM [1]: 100%
- remaining binding at 10 µM (TIE2): 92%
- remaining binding at 10 µM (YANK1): 100%
